In patent US20110097741A1, “PARTIAL T1R2 NUCLEIC ACID SEQUENCE, RECEPTOR PROTEIN AND ITS USE IN SCREENING ASSAYS” (priority 2006, published 2011):

What was measured:
[1] = system: host cells expressing only the G16gust44 chimeric G-protein; experiment: Fluo-4 calcium assay in negative control cells expressing G16gust44 only; assay type: cell-based, human
Experimental: As a negative control, mock transfected cells were exposed to the same concentration of ligand and the concentration of calcium traces not corresponding to a signal was determined.
As a result of said evalution, it was determined that when these cell lines are exposed to perillartine, many of cell clones respond to this stimulus with a significant increase in fluorescence which is greater than 10-times of the signal compared to the signal of the negative control (cells that express solely G16gust44 promiscuous G-protein but not T1R2-TMD).
The signals elicited by the test agents in cells that stably express G16gust44 and T1R2-TMD containing cells (formed as described in example 3) were compared to the signals obtained in cells that stably express G16gust44 and the T1R2/T1R3 heterodimer (formed as described in example 4), and as a negative control, cells that stably express G16gust44 were used.

T1R2-TMD = target: T1, T1R2-TMD (Homo sapiens, UniProt Q8TE23); experiment: Fluo-4 calcium assay in HEK293 cells stably expressing G16gust44 and T1R2-TMD; assay type: cell-based
T1 construct: first 45 amino acids of rat somatostatin type 3 receptor plus linker) (N); expressed in transfected cells; host or cells: HEK-293-T-Rex based cell line stably expressing G16gust44
T1 sequence (Q8TE23 564-839): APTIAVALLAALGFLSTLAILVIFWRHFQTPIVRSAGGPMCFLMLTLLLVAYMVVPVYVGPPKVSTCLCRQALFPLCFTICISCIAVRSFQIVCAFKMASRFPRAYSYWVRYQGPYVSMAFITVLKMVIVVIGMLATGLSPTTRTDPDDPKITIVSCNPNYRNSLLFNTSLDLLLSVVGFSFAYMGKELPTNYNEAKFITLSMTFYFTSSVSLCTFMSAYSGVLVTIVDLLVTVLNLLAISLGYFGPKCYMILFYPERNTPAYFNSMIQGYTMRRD
Excerpt: (§1) All examples use the human receptors.
Fluo-4 is a fluorescent indicator for intracellular calcium and allows to determine changes in the calcium concentration, in particular an increase in response to receptor activation occurring after ligand addition (for example perillartine or methyl chavicol).
HEK293 cells stably expressing G alpha 16 gustducin 44 and transfected with T1R2-TMD as described in example 3 were used as host cells.
Black, clear-bottom 96-well plates were used for all assays. They were seeded the day before with 8500 transfected cells per well and maintained at 37° C. overnight in a growth medium appropriate for the cells used. For HEK293 cells, Dulbecco's Modified Eagle medium containing high glucose, L-glutamine, pyroxidine hydrochloride, and supplemented with 10% fetal bovine serum was used for growth and maintenance of the HEK293 cells.
At the time of the assay, the growth medium was discarded and cells were incubated for 1 hour (at 37° C. in the dark) with 50 μl of a calcium assay solution consisting of 1.5 μM Fluo-4 AM (Molecular Probes™, Invitrogen, US) and 2.5 μM probenicid (Sigma-Aldrich) dissolved in a C1 buffer solution. C1 buffer solution contains 130 mM NaCl, 5 mM KCl, 10 mM Hepes, 2 mM CaCl2 and 10 mM glucose (pH 7.4).
After the initial 1 hour loading period, the plates were washed 5 times with 100 μl per well of C1 buffer using an automated plate washer (BioTek) and after washing, the plate was further incubated for 30 minutes at room temperature in the dark to allow for complete de-esterification of the Fluo-4-AM. […]
(§2) For assay reading, the plate was placed in a FLIPR (fluorescence imaging plate reader (FLIPR-Tetra, Molecular Devices)), and receptor activation was initiated following addition of 20 μl of a 10× concentrated ligand stock solution.
(§3) Fluorescence was continuously monitored for 15 seconds prior to ligand addition and for 105 seconds after ligand addition (45-105 sec may be sufficient). […]
(§4) Fluorescence Increase=Maximum Fluorescence−baseline fluorescence,
wherein the baseline fluorescence represents the mean fluorescence calculated for the first 10 to 15 seconds prior to ligand addition.
As a negative control, mock transfected cells were exposed to the same concentration of ligand and the concentration of calcium traces not corresponding to a signal was determined. […]
The data was calculated as described in example 1 and illustrated the net increase in fluorescence over baseline following stimulation of the cells with 50 μM perillartine. […]
HEK293T cells that stably express G16gust44 and T1R2-TMD (formed as described in example 3) are loaded with the calcium dye Fluo-4, and their response to perillartine is measured by using fluorescent calcium signals as described in example 1. […]

T1R2/T1R3 heterodimer = target: T2, T1R2/T1R3 heterodimer (Homo sapiens, UniProt Q8TE23); experiment: Fluo-4 calcium assay in cells stably expressing G16gust44 and the T1R2/T1R3 heterodimer; assay type: cell-based; details: 4-parameter logistic fit
T2 construct: expressed in transfected cells; host or cells: HEK-293-T-Rex based cell line stably expressing G16gust44
T2 sequence (Q8TE23 20-839): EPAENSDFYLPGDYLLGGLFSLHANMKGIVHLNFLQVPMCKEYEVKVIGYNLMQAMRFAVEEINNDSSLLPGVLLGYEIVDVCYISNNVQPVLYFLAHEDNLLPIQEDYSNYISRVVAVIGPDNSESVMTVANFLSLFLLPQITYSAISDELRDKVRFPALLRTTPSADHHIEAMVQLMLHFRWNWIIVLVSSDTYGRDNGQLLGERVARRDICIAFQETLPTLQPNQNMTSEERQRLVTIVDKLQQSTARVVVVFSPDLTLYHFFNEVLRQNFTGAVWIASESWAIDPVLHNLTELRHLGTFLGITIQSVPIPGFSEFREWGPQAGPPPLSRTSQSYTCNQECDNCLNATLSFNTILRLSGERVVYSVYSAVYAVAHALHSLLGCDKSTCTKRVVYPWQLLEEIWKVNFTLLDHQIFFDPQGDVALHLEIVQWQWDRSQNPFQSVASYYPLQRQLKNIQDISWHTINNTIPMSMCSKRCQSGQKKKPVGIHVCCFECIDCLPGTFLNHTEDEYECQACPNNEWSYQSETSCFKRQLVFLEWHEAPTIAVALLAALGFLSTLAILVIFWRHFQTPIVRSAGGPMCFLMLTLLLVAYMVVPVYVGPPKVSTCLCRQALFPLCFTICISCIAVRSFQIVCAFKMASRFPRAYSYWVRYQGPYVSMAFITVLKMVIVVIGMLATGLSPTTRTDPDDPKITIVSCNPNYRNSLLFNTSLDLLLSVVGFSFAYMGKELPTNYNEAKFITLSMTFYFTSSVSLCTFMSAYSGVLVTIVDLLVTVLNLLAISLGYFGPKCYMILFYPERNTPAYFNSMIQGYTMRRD
T2 sequence (Q7RTX0 21-852 C757R partner): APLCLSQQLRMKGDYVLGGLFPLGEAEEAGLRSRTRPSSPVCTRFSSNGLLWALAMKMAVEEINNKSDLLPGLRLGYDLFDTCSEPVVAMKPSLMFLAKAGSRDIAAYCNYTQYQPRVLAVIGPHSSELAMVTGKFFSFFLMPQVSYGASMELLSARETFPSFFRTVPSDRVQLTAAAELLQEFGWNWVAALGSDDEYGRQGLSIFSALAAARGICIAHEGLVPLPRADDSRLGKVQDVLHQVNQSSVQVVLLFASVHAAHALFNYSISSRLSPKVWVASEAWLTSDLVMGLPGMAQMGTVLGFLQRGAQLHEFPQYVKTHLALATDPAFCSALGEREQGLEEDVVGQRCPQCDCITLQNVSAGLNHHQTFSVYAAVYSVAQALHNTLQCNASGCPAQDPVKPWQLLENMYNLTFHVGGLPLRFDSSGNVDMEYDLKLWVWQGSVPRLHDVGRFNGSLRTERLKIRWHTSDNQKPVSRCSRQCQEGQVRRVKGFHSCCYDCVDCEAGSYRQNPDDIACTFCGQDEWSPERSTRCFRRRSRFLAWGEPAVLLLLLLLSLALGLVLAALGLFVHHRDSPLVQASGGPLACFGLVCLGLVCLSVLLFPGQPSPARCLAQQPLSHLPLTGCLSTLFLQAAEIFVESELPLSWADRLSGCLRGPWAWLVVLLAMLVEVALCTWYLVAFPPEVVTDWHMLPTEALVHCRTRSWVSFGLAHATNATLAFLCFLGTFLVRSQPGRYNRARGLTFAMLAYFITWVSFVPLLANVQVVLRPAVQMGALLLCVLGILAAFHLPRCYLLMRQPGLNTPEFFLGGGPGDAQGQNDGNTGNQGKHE
Experimental: as §1
At the time of the assay, the growth medium was discarded and cells were incubated for 1 hour (at 37° C. in the dark) with 50 μl of a calcium assay solution consisting of 1.5 μM Fluo-4 AM (Molecular Probes™, Invitrogen, US) and 2.5 μM probenicid (Sigma-Aldrich) dissolved in a C1 buffer solution. C1 buffer solution contains 130 mM NaCl, 5 mM KCl, 10 mM Hepes, 2 mM CaCl2 and 10 mM glucose (pH 7.4). […]
as §2, §3, §4
wherein the baseline fluorescence represents the mean fluorescence calculated for the first 10 to 15 seconds prior to ligand addition. […]
Resistant colonies were expanded, and identified as containing the T1R2/T1R3 sweet heterodimer by their response to various sweetener compounds including sucrose, sucralose, aspartame and acesulfame K, which was determined via automated fluorimetric imaging on the FLIPR-Tetra instrumentation (Molecular Devices) using the methods described in example 1. […]

| SMILES | Negative control [RFU] ([1]; 100 micromolar, cells stably expressing G16gust44 only, average of two replicates) | AVERAGE [RFU] (net increase in fluorescence over baseline) ([1]; G16gust44 ONLY (neg. control) cells, 50 μM perillartine) | calcium signaling upon stimulation (T1R2-TMD; 50 μM, cells stably expressing human T1R2-TMD, not in negative control) | AVERAGE [RFU] (net increase in fluorescence over baseline) (T1R2-TMD; T1R2-TMD/G16gust44 cells, 50 μM perillartine, no tetracycline induction) | EC50 (T1R2-TMD; T1R2-TMD, 4-parameter logistic fit, doses 0.1 to 200 micromolar) [µM] | increase in fluorescence, signal compared to the signal of the negative control (T1R2-TMD; many cell clones, 50 μM perillartine, absence of tetracycline induction, vs cells expressing solely G16gust44) | EC50 (T1R2/T1R3 heterodimer) [µM] |
| --- | --- | --- | --- | --- | --- | --- | --- |
| C=CCc1ccc(OC)cc1 [Methyl chavicol] | 732.195 |  |  |  |  |  |  |
| C=C(C)[C@@H]1CC=C(/C=N/O)CC1 [perillartine] |  | 73.78 | Significant increases | 973.06 | 6.2 | greater than 10 times | 3.5 |
